Experimental data reported in patent publication US20260284028A1, “FUSED BICYCLIC HETEROCYCLYL COMPOUNDS AS CCR4 MODULATORS” (AURIGENE ONCOLOGY LIMITED, priority 2023, published 2026).
Where two headings read alike, the source gives them in different places.

Molecular target: T1, CCR4 (Homo sapiens, UniProt P51679)
T1 construct: expressed in transfected cells; host or cells: CHO-K1
T1 sequence (P51679 1-360): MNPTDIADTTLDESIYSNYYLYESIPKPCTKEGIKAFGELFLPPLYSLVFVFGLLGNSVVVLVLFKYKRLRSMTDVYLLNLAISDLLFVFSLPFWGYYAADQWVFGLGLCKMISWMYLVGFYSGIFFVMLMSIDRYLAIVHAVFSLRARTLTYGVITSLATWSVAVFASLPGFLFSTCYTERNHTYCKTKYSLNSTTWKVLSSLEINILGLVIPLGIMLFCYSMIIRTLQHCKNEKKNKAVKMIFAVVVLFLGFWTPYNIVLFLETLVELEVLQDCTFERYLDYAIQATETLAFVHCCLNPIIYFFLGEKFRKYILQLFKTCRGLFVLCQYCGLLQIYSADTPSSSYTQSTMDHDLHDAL
Experiment: β-Arrestin recruitment assay (CHO-K1 CCR4 β-Arrestin cells stimulated with recombinant human CCL22)
Type: cell-based
Conditions: CCL22 10 nM stimulation; for IC50: read-out: CCR4 antagonistic activity IC50 (μM) in range; for inhibition: read-out: % inhibition at 5 μM/30 μM (% E-Max)
Method: CHO-K1 CCR4 β-Arrestin cells were seeded and incubated overnight at 37° C. in a CO2 incubator for adherence. Next day, cells were pretreated with various concentrations of CCR4 modulators for 30 mins at 37° C. The cells were stimulated with recombinant human CCL22 (10 nM) and further incubated for 90 mins. Working detection solution was added and incubated at room temperature for 1 hour after which the chemiluminescent signal was read using a luminometer.
Exemplary compounds of the present application were screened by the above-mentioned assay and the results were tabulated.

[1] = CHO-K1, read-out: % inhibition 30 μM (% E-Max)

C[C@@H](Nc1cccc2nc(N3CC([C@H]4CCCN([C@H]5C[C@](C)(C(=O)O)C5)C4)C3)sc12)c1ccc(Cl)cc1Cl [Compound 8]
IC50: 0.25 to 0.5 µM | inhibition [1]: 102%

Cc1cc2nc(N3CC([C@H]4CCCN([C@H]5C[C@](C)(C(=O)O)C5)C4)C3)oc2c(N[C@H](C)c2ccc(Cl)cc2Cl)c1Cl [Compound 9]
IC50: < 0.25 µM | inhibition [1]: 103%

COc1ccc2nc(N3CC([C@H]4CCCN([C@H]5C[C@](C)(C(=O)O)C5)C4)C3)oc2c1N[C@H](C)c1ccc(Cl)cc1Cl [Compound 10]
IC50: 0.25 to 0.5 µM | inhibition [1]: 93%

C[C@@H](Nc1c(OC(F)F)ccc2nc(N3CC([C@H]4CCCN([C@H]5C[C@](C)(C(=O)O)C5)C4)C3)oc12)c1ccc(Cl)cc1Cl [Compound 11]
IC50: < 0.25 µM | inhibition [1]: 101%

C[C@@H](Nc1c(OC(F)(F)F)ccc2nc(N3CC([C@H]4CCCN([C@H]5C[C@](C)(C(=O)O)C5)C4)C3)oc12)c1ccc(Cl)cc1Cl [Compound 12]
IC50: 0.25 to 0.5 µM | inhibition [1]: 99.3%

C[C@@H](Nc1c(C(F)(F)F)ccc2nc(N3CC([C@H]4CCCN([C@H]5C[C@](C)(C(=O)O)C5)C4)C3)oc12)c1ccc(Cl)cc1Cl [Compound 13]
IC50: < 0.25 µM | inhibition [1]: 101%

C[C@@H](Nc1nccc2nc(N3CC([C@H]4CCCN([C@H]5C[C@](C)(C(=O)O)C5)C4)C3)oc12)c1ccc(Cl)cc1Cl [Compound 14]
IC50: 0.25 to 0.5 µM | inhibition [1]: 96.4%

C[C@@H](Nc1cncc2nc(N3CC([C@H]4CCCN([C@H]5C[C@](C)(C(=O)O)C5)C4)C3)oc12)c1ccc(Cl)cc1Cl [Compound 15]
IC50: 0.25 to 0.5 µM | inhibition [1]: 101%

C[C@@H](Nc1ccnc2nc(N3CC([C@H]4CCCN([C@H]5C[C@](C)(C(=O)O)C5)C4)C3)oc12)c1ccc(Cl)cc1Cl [Compound 16]
IC50: < 0.25 µM | inhibition [1]: 103%

C[C@@H](Nc1c(Cl)cnc2nc(N3CC([C@H]4CCCN([C@H]5C[C@](C)(C(=O)O)C5)C4)C3)oc12)c1ccc(Cl)cc1Cl [Compound 17]
IC50: 0.25 to 0.5 µM | inhibition [1]: 102%

Cc1ccc2nc(N3CC([C@H]4CCCN([C@H]5C[C@](C)(C(=O)O)C5)C4)C3)oc2c1N[C@H](C)c1ccc(Cl)cc1Cl [Compound 18]
IC50: < 0.25 µM | inhibition [1]: 103%

C[C@@H](Nc1c(C(N)=O)ccc2nc(N3CC([C@H]4CCCN([C@H]5C[C@](C)(C(=O)O)C5)C4)C3)oc12)c1ccc(Cl)cc1Cl [Compound 19]
IC50: 0.25 to 0.5 µM | inhibition [1]: 93.8%

C[C@@H](Nc1c(C(=O)N(C)C)ccc2nc(N3CC([C@H]4CCCN([C@H]5C[C@](C)(C(=O)O)C5)C4)C3)oc12)c1ccc(Cl)cc1Cl [Compound 20]
inhibition [1]: 41.5%

C[C@@H](Nc1c(C#N)ccc2nc(N3CC([C@H]4CCCN([C@H]5C[C@](C)(C(=O)O)C5)C4)C3)oc12)c1ccc(Cl)cc1Cl [Compound 21]
IC50: < 0.25 µM | inhibition [1]: 103%

C[C@@H](Nc1cccc2nc(N3CC([C@H]4CCCN([C@H]5C[C@](C)(C(=O)O)C5)C4)C3)n(C)c12)c1ccc(Cl)cc1Cl [Compound 22]
inhibition (CHO-K1, at 30 μM): 29.5%

C[C@@H](Nc1c(Cl)ccc2nc(N3CC([C@H]4CCCN([C@H]5C[C@](C)(C(=O)O)C5)C4)C3)sc12)c1ccc(Cl)cc1Cl [Compound 23]
IC50: < 0.25 µM | inhibition [1]: 104%

C[C@@H](Nc1c(Cl)ccc2nc(N3CC([C@H]4CCCN(C5(CC(=O)O)CCC5)C4)C3)oc12)c1ccc(Cl)cc1Cl [Compound 24]
inhibition [1]: 61%

C[C@@H](Nc1c(F)ccc2nc(N3CC([C@H]4CCCN([C@H]5C[C@](C)(C(=O)O)C5)C4)C3)sc12)c1ccc(Cl)cc1Cl [Compound 25]
IC50: < 0.25 µM | inhibition [1]: 101%

C[C@@H](Nc1c(F)ccc2nc(N3CC(C4CN([C@H]5C[C@](C)(C(=O)O)C5)CCO4)C3)sc12)c1ccc(Cl)cc1Cl (stereo partly shown) [Compound 26]
IC50: < 0.25 µM | inhibition [1]: 103%

C[C@@H](Nc1c(F)ccc2nc(N3CC([C@H]4CCCN([C@H]5C[C@](C)(C(=O)O)C5)C4)C3)sc12)c1ccc(F)cc1F [Compound 29]
IC50: < 0.25 µM | inhibition [1]: 103%
